Usually LOAEL stands for the lowest tested level that showed an adverse finding. What is called NOAEL is the highest tested level that showed no adverse finding.

Values joined by “and” are separate entries in the source; they are usually repeats but may differ in a detail not shown here. Equal values may be shown once.

The subject of data set [1] is Homo sapiens. Conditions: clinical; oral; M/F; decreased erythrocyte cu, zn-superoxide dismutase (esod) activity in healthy adult male and female volunteers.
In data set [2] the test system is Homo sapiens. The settings on record: clinical; duration: 10 weeks; oral; diet; Blood: Decreased blood enzyme.
Data set [3] relates to Homo sapiens. Conditions: clinical, duration: 10 weeks, oral, F, hematological.
Data set [4] deals with Homo sapiens. Conditions: clinical; oral; M/F; No significant adverse effects.
For data set [5], the system named is Rattus norvegicus. The settings on record: for LD50: acute.
The subject of data set [6] is Mus musculus.
Data set [7] concerns Oryctolagus sp. Conditions: acute.
Data set [8] relates to Mus musculus. Nature of the data set: LD0; higher = less toxic. Conditions: acute; oral.
Data set [9] concerns Cavia porcellus. Conditions: subchronic; duration: 3 months; inhalation; Guinea Pig.
The test system of data set [10] is Monkey. The settings on record: subchronic; duration: 3 months; inhalation.
Data set [11] relates to Mus musculus. Conditions: duration: 13 weeks, oral, M/F, CD1, Hepatotoxic lesions (males).
In data set [12] the test system is Rattus norvegicus. The settings on record: chronic, M/F.
In data set [13] the test system is Rattus norvegicus. The settings on record: repeat dose other; oral.
Data set [14] concerns Canidae. The settings on record: chronic; duration: 16 months; oral; diet; M/F; Beagle; Urinary.
Data set [15] concerns Rattus norvegicus. Conditions: chronic, oral, diet; for NOAEL: M, Wistar, immunological.
Data set [16] deals with Mus musculus. Conditions: developmental; duration: 7 days; oral; gavage; M/F; ICR; developmental.
Data set [17] has as its system Rattus norvegicus. Kind of data set: LC0; higher = less toxic. Conditions: acute; inhalation.
The subject of data set [18] is Mus musculus. Conditions: repeat dose other; oral.
For data set [19], the system named is Coturnix japonica. The settings on record: repeat dose other; oral.
Data set [20] concerns Anas platyrhynchos. The settings on record: oral.
Data set [21] deals with Nycticorax nycticorax. Conditions: oral.
Data set [22] has as its system Megascops sp. Conditions: oral.
Data set [23] has as its system Canidae. Conditions: repeat dose other; oral; Dog Other.
Data set [24] concerns Rattus norvegicus. Conditions: chronic; duration: 2 years; oral; drinking water; Liver: Lesions.
Where [25] appears, read: chronic, duration: 24 months, oral, diet, Sprague-Dawley.
[26] abbreviates: subchronic, duration: 8 weeks, oral, diet, Sprague-Dawley.
[27] abbreviates: subchronic, duration: 13 weeks, oral, gavage, F33/N.
The mark [28] stands for this setting: subchronic, duration: 13 weeks, oral, gavage, B6C3F1.
[29] abbreviates: inhalation, liver toxicity (fatty change).
[30] abbreviates: oral, drinking water, liver toxicity (fatty change).

For `[Zn]` [Zinc], the figures for the lowest-observed-adverse-effect level (LOAEL) in data set [1] and in [2] were 0.91 mg/kg-day and 1 mg/kg-day, respectively. The NOAEL in [3] was 0.83 mg/kg-day; in data set [3] (capsule), 0.83 mg/kg-day; in data set [4], 220 mg/day and 600 mg/day.

As for `O=C(Nc1ccc(Cl)cc1)Nc1ccc(Cl)c(Cl)c1` [Triclocarban], the LD50 in data set [5] (oral, gavage, Sprague-Dawley) is above 50100 mg/kg; in data set [6] (acute, injection, Intraperitoneal), 2100 mg/kg; in [7] (dermal, occlusive, New Zealand), above 10000 mg/kg. Besides, the LOAEL in [5] (setting [25]) amounted to 75 mg/kg-day; in data set [5] (setting [26]), 250 mg/kg-day. Further, the no observed adverse effect level (NOAEL) is 25 mg/kg-day in [5] (setting [25]); above 3000 ppm in data set [5] (developmental, oral, diet, Sprague-Dawley); above 3000 ppm in data set [5] (reproduction developmental, oral, diet, F, Sprague-Dawley); 3000 ppm in data set [5] (reproduction developmental, oral, diet, Sprague-Dawley, generation: F0); 1000 ppm in data set [5] (reproduction developmental, oral, diet, Sprague-Dawley, generation: F1); 3000 ppm in data set [5] (reproduction developmental, oral, diet, Sprague-Dawley, generation: F2). This molecule also displayed an NOAEL in data set [5] (setting [26]) of 75 mg/kg-day. Further, the LD0 in data set [8] is above 5000 mg/kg.

For `CCCCC(CC)COP(=O)(OCC(CC)CCCC)OCC(CC)CCCC` (stereo not drawn) [Tris(2-ethylhexyl) phosphate], the LD50 in data set [5] (inhalation) was above 0.45 mg/L; in data set [7] (dermal) it was 20000 mg/kg; in [7] (injection, intravenous), above 358 mg/kg; in data set [7] (intertracheal), above 1810 mg/kg. The figures for the LOAEL in [5] (setting [27]), in data set [6] (setting [28]) and in data set [9] were 2000 mg/kg-day, 4000 mg/kg-day and 9.6 mg/m3, respectively. Also, the NOAEL in data set [5] (setting [27]) was 1000 mg/kg-day; in data set [5] (subchronic, duration: 30 days, oral, diet), 430 mg/kg-day; in [6] (setting [28]), 2000 mg/kg-day; in data set [9], 1.6 mg/m3; in [10], 85 mg/m3.

In the case of `CC1CCc2cc(F)cc3c(=O)c(C(=O)O)cn1c23` (stereo not drawn) [Flumequine], the NOEL in data set [11] (feed) was found to be 25 mg/kg-day; in [11] (subchronic, diet) it was 25 mg/kg-day.

Consider `ClC1=C(Cl)[C@]2(Cl)[C@H]3[C@H]([C@@H]4C=C[C@H]3C4)[C@@]1(Cl)C2(Cl)Cl` [Aldrin], for which the lowest observed adverse effect level (LOAEL) in data set [12] (oral, diet, liver toxicity) amounted to 0.025 mg/kg-day; in data set [13], 1 mg/kg-day; in data set [14], 0.043 mg/kg-day; in [15] (duration: 2 years, M/F, Osborne-Mendel, hepatic) it was 0.037 mg/kg-day; in data set [16] it was 2 mg/kg-day. In data set [13], this molecule came in with a no-observed-adverse-effect level (NOAEL) of 0.2 mg/kg-day.

The molecule `FC(F)(F)C(F)(Cl)Cl` [1,1-Dichlorotetrafluoroethane] came in with an LC0 in [17] above 1.07e+06 mg/m3. Also, in data set [5] (short-term, duration: 2 weeks, inhalation, M, Crl:CDABR), the NOAEL came out at 289000 mg/m3.

With `CCC[CH2][Sn]([CH2]CCC)([CH2]CCC)[O][Sn]([CH2]CCC)([CH2]CCC)[CH2]CCC` [Bis(tributyltin)oxide], the LOAEL turned out to be 35 mg/kg-day in [18] and 16.9 mg/kg-day in data set [19]. Besides, the no observed adverse effect level (NOAEL) in data set [18] is 23.4 mg/kg-day; in [19], 6.8 mg/kg-day; in data set [15] (duration: 6 months), 0.025 mg/kg-day; in data set [15] (duration: 18 months), 0.025 mg/kg-day.

For the molecule `C[Se]CCC(N)C(=O)O` (stereo not drawn) [Selenomethionine], the LOAEL in data set [20] was 0.8 mg/kg-day; in data set [22] it was 1.5 mg/kg-day. Besides, the no observed adverse effect level (NOAEL) in data set [20] amounted to 0.4 mg/kg-day; in data set [21], 1.8 mg/kg-day; in data set [22], 0.44 mg/kg-day.

On to `C=C(Cl)Cl` [1,1-Dichloroethylene], for which the lowest-observed-adverse-effect level (LOAEL) in [12] (setting [29]) amounted to 297 mg/m3; in data set [12] (setting [30]), 14 mg/kg-day; in data set [24], 9 mg/kg-day. Moreover, the no observed adverse effect level (NOAEL) in data set [12] (setting [29]) is 99.1 mg/m3; in data set [12] (setting [30]) it was 9 mg/kg-day; in data set [13], 30 mg/kg-day; in data set [23], 2.5 mg/kg-day.

The values are drawn from EPA's ToxValDB 9.5.
